Results published in US20240239775A1, “FXR REGULATOR, PREPARATION METHOD THEREFOR, PHARMACEUTICAL COMPOSITION THEREOF AND USE THEREOF” (QINGDAO RUIJI MEDICAL TECHNOLOGY CO., LTD., priority 2021, published 2024).

Target: T1, FXR (Homo sapiens, UniProt Q96RI1)
T1 construct: 5 μL of 20 nM FXR-LBD Complete Coregulator buffer G; purchased ThermoFisher PV4833
T1 sequence (Q96RI1 262-486 limits assumed): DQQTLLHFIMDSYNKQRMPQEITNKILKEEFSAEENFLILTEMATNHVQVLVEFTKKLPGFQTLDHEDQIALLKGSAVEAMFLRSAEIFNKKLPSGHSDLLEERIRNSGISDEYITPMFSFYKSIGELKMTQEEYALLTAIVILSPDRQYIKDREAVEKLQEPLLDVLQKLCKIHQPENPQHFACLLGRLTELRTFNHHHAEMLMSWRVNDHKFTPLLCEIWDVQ
Assay: FXR antagonist screening by TR-FRET (LanthaScreen TR-FRET FXR co-activation assay kit)
Type: biochemical
Details: Table 1.1, FXR antagonistic activity; TR-FRET with CDCA; geometric means of at least two independent runs
Procedure, shortened: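 FXR-LBD (20 nM working solution) mixed with compound, CDCA (200 μM working solution) as agonist, Fluorescein-SRC2-2 and Tb-anti-GST antibody in Coregulator buffer G; 10 h at room temperature. Coactivator recruitment read by TR-FRET, triplicate wells.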

Row | SMILES | IC50
1 | CCOC(=O)c1oc2ccc(S(=O)(=O)N(CCc3ccccc3)c3ccccc3N3CCN(S(C)(=O)=O)CC3)cc2c1C [Example M10-93, ethyl 3-methyl-5-(N-(2-(4-(methylsulfonyl)piperazin-1-yl)phenyl)-N-phenethylsulfamoyl)benzofuran-2-carboxylate] | 50 to 100 µM
2 | CCOC(=O)c1oc2ccc(S(=O)(=O)N(CCc3ccccc3)Cc3cccc4ccccc34)cc2c1C [Example M4-43, ethyl 3-methyl-5-(N-(naphthalen-1-ylmethyl)-N-phenethylsulfamoyl)benzofuran-2-carboxylate] | 50 to 100 µM
3 | CCOC(=O)c1oc2ccc(S(=O)(=O)N(CCc3ccccc3)Cc3cccc(N4CCN(C(=O)OC(C)(C)C)CC4)c3)cc2c1C [Example M8-88, ethyl 3-methyl-5-(N-(3-(4-(tert-butoxycarbonyl)piperazin-1-yl)benzyl)-N-phenethylsulfamoyl)benzofuran-2-carboxylate] | 50 to 100 µM
4 | CCOC(=O)c1oc2ccc(S(=O)(=O)N(CCc3ccccc3)Cc3ccc(C#N)cc3F)cc2c1C [Example M4-54, ethyl 3-methyl-5-(N-(2-fluoro-4-cyanobenzyl)-N-phenethylsulfamoyl)benzofuran-2-carboxylate] | 50 to 100 µM
5 | Cc1c(C(=O)O)oc2ccc(S(=O)(=O)N(CCc3ccccc3)Cc3cccc4cccnc34)cc12 [Example F27-S44, 3-methyl-5-(N-(quinolin-8-ylmethyl)-N-phenethylsulfamoyl)benzofuran-2-carboxylic acid] | 10 to 50 µM
6 | CCOC(=O)c1oc2ccc(S(=O)(=O)N(CCc3ccccc3)Cc3ccccc3N3CCNCC3)cc2c1C [Example M9-2, ethyl 3-methyl-5-(N-phenethyl-N-(2-(piperazin-1-yl)benzyl)sulfamoyl)benzofuran-2-carboxylate] | 50 to 100 µM
7 | CCOC(=O)c1oc2ccc(S(=O)(=O)N(CCc3ccccc3)Cc3ccc(F)cc3C(F)(F)F)cc2c1C [Example M4-57, ethyl 3-methyl-5-(N-(2-(trifluoromethyl)-4-fluorobenzyl)-N-phenethylsulfamoyl)benzofuran-2-carboxylate] | 50 to 100 µM
8 | CCOC(=O)c1oc2ccc(S(=O)(=O)N(CCc3ccccc3)Cc3ccc(C(=O)OC)cc3)cc2c1C [Example M4-39, ethyl 3-methyl-5-(N-(4-(methoxycarbonyl)benzyl)-N-phenethylsulfamoyl)benzofuran-2-carboxylate] | 50 to 100 µM
9 | CCOC(=O)c1oc2ccc(S(=O)(=O)N(CCc3ccccc3)Cc3ccc(Br)cc3C(F)(F)F)cc2c1C [Example M4-59, ethyl 3-methyl-5-(N-(2-trifluoromethyl-4-bromobenzyl)-N-phenethylsulfamoyl)benzofuran-2-carboxylate] | 50 to 100 µM
10 | CCOC(=O)c1oc2ccc(S(=O)(=O)N(CCc3ccccc3)c3ccc(N4CCOCC4)cc3)cc2c1C [Example M8-63, ethyl 3-methyl-5-(N-(4-morpholinophenyl)-N-phenethylsulfamoyl)benzofuran-2-carboxylate] | 50 to 100 µM
11 | CCOC(=O)c1oc2ccc(S(=O)(=O)N(CCc3ccccc3)c3ccc(Oc4ccccc4)cc3)cc2c1C [Example M8-12, ethyl 3-methyl-5-(N-(4-phenoxyphenyl)-N-phenethylsulfamoyl)benzofuran-2-carboxylate] | 50 to 100 µM
12 | Cc1c(C(=O)O)oc2ccc(S(=O)(=O)N(CCc3ccccc3)CCc3ccccc3)cc12 [Example F27-S13, 3-methyl-5-(N,N-diphenylethylsulfamoyl)benzofuran-2-carboxylic acid] | 10 to 50 µM

Same assay, conditions: Table 1.2, FXR antagonistic activity; TR-FRET with CDCA; geometric means of at least two independent runs

Row | SMILES | IC50
13 | Cc1c(C(=O)O)sc2ccc(S(=O)(=O)N(CCc3ccccc3)c3ccccc3N3CCN(C(=O)c4sccc4Br)CC3)cc12 [Example F27-S158, 5-(N-(2-(4-(3-bromothiophene-2-carbonyl)piperazin-1-yl)phenyl)-N-phenethylsulfamoyl)-3-toluothiophene-2-carboxylic acid] | 0.1 to 10 µM
14 | C/C=C/C(=O)N1CCN(c2ccccc2N(CCc2ccccc2)S(=O)(=O)c2ccc3oc(C(=O)OCC)c(C)c3c2)CC1 [Example M10-120, (E)ethyl-5-(N-(2-(4-(but-2-enoyl)piperazin-1-yl)phenyl)-N-phenethylsulfamoyl)-3-methylbenzofuran-2-carboxylate] | 50 to 100 µM
15 | Cc1c(C(=O)O)oc2ccc(S(=O)(=O)N(CCc3ccccc3)c3ccccc3N3CCN(C(=O)c4ccc(NC(=O)OC(C)(C)C)cc4)CC3)cc12 [Example F27-S113] | 0.1 to 10 µM
16 | Cc1c(C(=O)O)sc2ccc(S(=O)(=O)N(CCc3cccc(Cl)c3)c3ccccc3N3CCN(C(=O)c4sccc4Br)CC3)cc12 [Example F27-S172, 5-(N-(2-(4-(3-bromothiophene-2-carbonyl)piperazin-1-yl)phenyl)-N-(3-chlorophenethyl)sulfamoyl)-3-methylbenzothiophene-2-carboxylic acid] | 0.1 to 10 µM
17 | CCOC(=O)c1oc2ccc(S(=O)(=O)N(CCc3ccccc3)c3ccccc3N3CC4CC3CN4C(=O)c3sccc3Br)cc2c1C (centres unmarked) [Example M10-157, Ethyl 5-(N-(2-(5-(3-bromothiophene-2-formyl)-2,5-diazabicyclo[2.2.1]hept-2-yl)phenyl)-N-phenethylsulfamoyl)3-methylbenzofuran-2-carboxylate] | 50 to 100 µM
18 | CCOC(=O)c1oc2ccc(S(=O)(=O)N(CCc3ccccc3)c3ccccc3N3CCN(C(=O)c4cccc(C)c4)CC3)cc2c1C [Example M10-108, ethyl 3-methyl-5-(N-(2-(4-(3-methylbenzoyl)piperazin-1-yl)phenyl)-N-phenethylsulfamoyl)benzofuran-2-carboxylate] | 50 to 100 µM
19 | CCOC(=O)c1sc2ccc(S(=O)(=O)N(CCC3CCCCC3)c3ccccc3N3CCN(C(=O)c4sccc4Br)CC3)cc2c1C [Example M10-180, Ethyl 5-(N-(2-(4-(3-bromothiophene-2-carbonyl)piperazin-1-yl)phenyl)-N-(2-cyclohexylethyl)sulfamoyl)-3-methylbenzothiophene-2-carboxylate] | 50 to 100 µM
20 | CCOC(=O)c1oc2ccc(S(=O)(=O)N(CCc3ccccc3)c3ccccc3N3CCN(C(=O)c4sccc4C)CC3)cc2c1C [Example M10-141, Ethyl 5-(N-(2-(4-(3-methylthiophene-2-formyl)piperazin-1-yl)phenyl)-N-phenethylsulfamoyl)3-methylbenzofuran-2-carboxylate] | 50 to 100 µM
21 | Cc1c(C(=O)O)oc2ccc(S(=O)(=O)N(CCc3ccccc3)c3ccccc3N3CCN(C(=O)C4CCCS4)CC3)cc12 (centres unmarked) [Example F27-S143, 5-(N-(2-(4-(tetrahydrothiophene-2-formyl)piperazin-1-yl)phenyl)-N-phenethylsulfamoyl)3-methyl benzofuran-2-carboxylic acid] | 0.1 to 10 µM
22 | CC(=O)Nc1ccc(C(=O)N2CCN(c3ccccc3N(CCc3ccccc3)S(=O)(=O)c3ccc4oc(C(=O)O)c(C)c4c3)CC2)cc1 [Example F27-S109, 5-(N-(2-(4-(4-acetamidobenzoyl)piperazin-1-yl)phenyl)-N-phenethylsulfamoyl)-3-methylbenzofuran-2-carboxylic acid] | 0.1 to 10 µM
23 | CCOC(=O)c1oc2ccc(S(=O)(=O)N(CCc3ccccc3)c3ccccc3N3CCN(C(=O)c4ccc(C)s4)CC3)cc2c1C [Example M10-139, Ethyl 5-(N-(2-(4-(5-methylthiophene-2-formyl)piperazin-1-yl)phenyl)-N-phenethylsulfamoyl)3-methylbenzofuran-2-carboxylate] | 50 to 100 µM
24 | CCOC(=O)c1oc2ccc(S(=O)(=O)N(CCc3ccccc3)c3ccccc3N3CC4CC(C3)N4C(=O)c3sccc3Br)cc2c1C [Example M10-151, Ethyl 5-(N-(2-(6-(3-bromothiophene-2-carbonyl)-3,6-diazabicyclo[3.1.1]heptan-3-yl)phenyl)-N-phenethylsulfamoyl)-3-methylbenzofuran-2-carboxylate] | 50 to 100 µM
25 | CCOC(=O)c1sc2ccc(S(=O)(=O)N(CCc3ccc(C#N)cc3)c3ccccc3N3CCN(C(=O)c4sccc4Br)CC3)cc2c1C [Example M10-168] | 50 to 100 µM
26 | CCOC(=O)c1oc2ccc(S(=O)(=O)N(CCc3ccccc3)c3ccccc3N3CCN(C(=O)c4sccc4Br)C[C@H]3C)cc2c1C [Example M10-153, (R)-ethyl-5-(N-(2-(4-(3-bromothiophene-2-carbonyl)-2-methylpiperazin-1-yl)phenyl)-N-phenethylsulfamoyl)-3-methylbenzofuran-2-carboxylate] | 50 to 100 µM
27 | Cc1c(C(=O)O)sc2ccc(S(=O)(=O)N(CCc3ccc(Cl)cc3)c3ccccc3N3CCN(C(=O)c4sccc4Br)CC3)cc12 [Example F27-S166, 5-(N-(2-(4-(3-bromothiophene-2-carbonyl)piperazin-1-yl)phenyl)-N-(4-chlorophenylethyl)sulfamoyl)-3-methylbenzothiophene-2-carboxylic] | 0.1 to 10 µM
28 | Cc1c(C(=O)O)n(C)c2ccc(S(=O)(=O)N(CCc3ccccc3)c3ccccc3N3CCN(C(=O)c4sccc4Br)CC3)cc12 [Example F27-S179, 5-(N-(2-(4-(3-bromothiophene-2-carbonyl)piperazin-1-yl)phenyl)-N-phenethylsulfamoyl)-1,3-dimethyl-1H-indole-2-carboxylic acid] | 0.1 to 10 µM
29 | Cc1ccsc1C(=O)N1CCN(c2ccccc2N(CCc2ccccc2)S(=O)(=O)c2ccc3oc(C(=O)O)c(C)c3c2)CC1 [Example F27-S141, 5-(N-(2-(4-(3-methylthiophene-2-formyl)piperazin-1-yl)phenyl)-N-phenethylsulfamoyl)3-methylbenzofuran-2-carboxylic acid] | 0.1 to 10 µM
